# Reference: patent US4558007A, “Process for detecting LDHk isozyme activity in human serum for use as a diagnostic aid and for monitoring response to cancer therapy” (Health Research, Inc. (Roswell Park Divison), priority 1983, dated 1985)
# Assays:
# LDHk [1] = settings: background description of the isozyme; cited from earlier work
# [2] = tested on: LDHk detected in human tumor tissues; settings: Anderson et al. 1981 study of human carcinomas; cited from earlier work
# LDHk [3] = test: Inhibition of LDHk by dinucleoside tetraphosphates; type: biochemical; settings: for Mode of inhibition of LDHk versus NAD+: competition with NAD+; for Ki: property shared by LDHk from cells transformed by Ki-MSV, human tumors, human liver, rat retina
# human serum LDHk = test: Inhibition of serum LDHk (gel lanes stained in presence of inhibitor); type: biochemical; settings: 3×10^-5 M in staining mixture, 4 1/2 hours
# Description: A reverse polarity gel system was used to isolate the LDHk isozyme which has a positive charge at pH 8.9 and migrates towards the cathode. The gel system was based on an imidazole/borate buffer system. The samples were analyzed on 3 mm thick, 20 well, 5.5% polyacrylamide slab gels photopolymerized with a riboflavin catalyst in the absence of persulfate. The gels were cast with a 0.15M potassium tetraborate buffer at pH 8.3. The lower reservoir buffer was 0.10M potassium tetraborate, pH 8.3, and the upper reservoir buffer contained 0.08M imidazole and 0.02M boric acid, pH 8.9. Gels were run an average of 16 hours at a voltage of 220 V, with cooling provided by circulating ice water.
# Staining was done using the nitroblue tetrazolium/phenazine methosulfate composition of Dietz and Lubrano as described previously using 1M Tris buffer, pH 8.0. The staining mixture was supplemented with 2% glycerol to complex with the borate ions. These gels were stained in the dar at a temperature of about 37° C. for 41/2 hours in an Ehrlenmeyer suction flask under a nitrogen atmosphere. After staining, the gels were fixed, scanned to measure the amount of stain, and stored as described above.
# An inhibition experiment was conducted on the serum LDHk. […]
Ki (LDHk [3]),SMILES,Inhibition of LDHk (LDHk [1]),Inhibition of LDHk of human tumor tissues [2],Mode of inhibition of LDHk versus NAD+ (LDHk [3]),Inhibition of human serum LDHk activity (human serum LDHk)
,"Nc1nc2c(ncn2[C@@H]2O[C@H](COP(=O)(O)OP(=O)(O)OP(=O)(O)O)[C@@H](O)[C@H]2O)c(=O)[nH]1 [GTP, guanosine triphosphate]",inhibited,inhibited,,
~50 µM,"Nc1ncnc2c1ncn2[C@@H]1O[C@H](COP(=O)(O)OP(=O)(O)OP(=O)(O)OP(=O)(O)OC[C@H]2O[C@@H](n3cnc4c(N)ncnc43)[C@H](O)[C@@H]2O)[C@@H](O)[C@H]1O [diadenosine tetraphosphate, 5',5' diadenosine tetraphosphate]",more strongly,,not competitive,not inhibited
~50 µM,"Nc1nc2c(ncn2[C@@H]2O[C@H](COP(=O)(O)OP(=O)(O)OP(=O)(O)OP(=O)(O)OC[C@H]3O[C@@H](n4cnc5c(=O)[nH]c(N)nc54)[C@H](O)[C@@H]3O)[C@@H](O)[C@H]2O)c(=O)[nH]1 [diguanosine tetraphosphate, 5',5' diguanosine tetraphosphate]",more strongly,,not competitive,
